Assay [1] deals with T1, purified wild type MGL (wt-MGLL 6H-11-313) (Homo sapiens, UniProt Q99685).
T1 sequence (Q99685 1-303): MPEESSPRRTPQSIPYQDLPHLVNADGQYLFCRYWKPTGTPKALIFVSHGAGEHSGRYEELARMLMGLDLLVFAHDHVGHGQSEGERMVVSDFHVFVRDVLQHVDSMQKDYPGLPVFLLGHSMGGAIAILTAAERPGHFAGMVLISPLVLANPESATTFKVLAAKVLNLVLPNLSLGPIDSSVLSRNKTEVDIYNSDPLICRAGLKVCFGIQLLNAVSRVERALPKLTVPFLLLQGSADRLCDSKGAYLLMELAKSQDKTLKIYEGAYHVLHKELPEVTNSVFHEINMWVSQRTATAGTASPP

The target in assay [2] is T2, mutant MGL (Homo sapiens, UniProt Q99685, L169S/L176S).
T2 sequence (Q99685 1-303 L169S/L176S): T1 sequence (Q99685 1-303) with L169S, L176S
Nature of the assay: MGL ThermoFluor assay - mutant. The class given is binding. Background: Differential scanning fluorimetry follows unfolding on heating by fluorescence.

The mark [3] stands for this setting: ThermoFluor concentration-response, read-out: MGL mutant ThermoFluor Kd.
[4] abbreviates: ThermoFluor thermal stability binding assay, read-out: MGL mutant ThermoFluor Kd.
[5] abbreviates: ThermoFluor, compound concentration measured by qNMR, read-out: MGL mutant ThermoFluor qKd (μM) (using qNMR conc.).
Where [6] appears, read: compound concentration measured by qNMR, read-out: MGL mutant ThermoFluor qKd (using qNMR conc.).
Setting [7] is: ThermoFluor, compound concentration measured by qNMR, read-out: MGL mutant ThermoFluor qKd (using qNMR conc.).

Substitutions are numbered along the chain they refer to. Where two headings read alike, the source gives them in different places.

What is called IC50 is the concentration that gives 50% inhibition. Read a high IC50 as a need for much substance. Turning to `O=C(c1ccc2c(c1)[nH]c(=O)n2-c1ccc(F)cc1)N1CC(N2CCN(C(=O)c3nccs3)CC2)C1` [Cpd 934, 1-(4-Fluorophenyl)-5-({3-[4-(1,3-thiazol-2-ylcarbonyl)piperazin-1-yl]azetidin-1-yl}carbonyl)-1,3-dihydro-2H-benzimidazol-2-one], 174 nM corresponded to half-maximal inhibition in assay [1] (IC50). In assay [2] (setting [3]), the Kd was determined as 0.025 µM.
Regarding `CC(=O)N1CC[C@@H](c2ccccc2C(=O)N2CC(N3CCN(C(=O)c4ccccc4)CC3)C2)C1` [Cpd 1486], the IC50 in assay [1] is above 16700 nM. The Kd in assay [2] (setting [4]) was above 31.2 µM.
With `O=C(c1ccc2c(ccn2-c2ccc(Cl)c(F)c2)c1)N1CC(N2CCN(C(=O)c3nccs3)CC2)C1` [Cpd 1372], the IC50 in assay [1] is below 5 nM. Further, the Kd in assay [2] (setting [5]) amounted to 0.002 µM.
Regarding `O=C(c1ccc2c(c1)ncn2CC(F)(F)F)N1CC(N2CCN(C(=O)c3nccs3)CC2)C1` [Cpd 761], in assay [1], the midpoint of inhibition, the IC50, lay at 583 nM. Moreover, in assay [2] (setting [6]), the Kd was determined as 0.092 µM.
Turning to `O=C(c1sc2cc(C(F)(F)F)ccc2c1Cl)N1CC(N2CCN(C(=O)c3cscn3)C(C(F)(F)F)C2)C1` (stereo not shown) [Cpd 833], in assay [1], inhibition was half-maximal at 4560 nM (IC50). In assay [2] (setting [5]), the Kd came to 3.33 µM.
The molecule `O=C(c1cnc(NCc2ccccc2)s1)N1CC(N2CCN(C(=O)c3nccs3)CC2)C1` [Cpd 795] showed an IC50 in assay [1] of 1500 nM. The Kd in assay [2] (setting [3]) was found to be 1.1 µM.
The molecule `O=C(Cn1ccc2cc(C(=O)N3CC(N4CCN(C(=O)c5nccs5)CC4)C3)ccc21)N1CCCC1` [Cpd 1035] yielded an IC50 in assay [1] of 4620 nM. For the same molecule, the Kd in assay [2] (setting [6]) is 1.01 µM.
For `O=C(c1cscn1)N1CCN(C2CN(C(=O)c3nn(-c4ccc(Cl)cc4Cl)c4c3CCCC4)C2)CC1` [Cpd 1304], the midpoint of inhibition in assay [1], the IC50, lay at 6030 nM. Moreover, the Kd in assay [2] (setting [6]) came out at 7.9 µM.
On to `O=C(c1ccc(Oc2cc(C(F)(F)F)ccn2)cc1)N1CC(N2CCN(C(=O)C(F)(F)F)CC2)C1` [Cpd 837], for which the IC50 in assay [1] is 5040 nM. In assay [2] (setting [6]), the Kd turned out to be 20 µM.
In assay [1], `O=C(c1ccccc1)N1CCN(C2CN(C(=O)c3cccc4[nH]c(-c5ccccc5)nc34)C2)CC1` [Cpd 601] registered a concentration for half-maximal inhibition (IC50) of 1550 nM. Also, the Kd in assay [2] (setting [4]) was determined as 0.527 µM.
With `O=C(c1cc[nH]c1)N1CCN(C2CN(C(=O)c3ccc(-c4cccc(C(F)(F)F)c4)cc3)C2)CC1` [Cpd 1324], the IC50 in assay [1] is below 5 nM. Besides, the Kd in assay [2] (setting [4]) was 0.016 µM.
On to `O=C(c1ccc2c(c1)C(Cc1cccc(C(F)(F)F)c1)(Cc1cccc(C(F)(F)F)c1)C(=O)N2Cc1cccc(C(F)(F)F)c1)N1CC(N2CCN(C(=O)c3nccs3)CC2)C1` [Cpd 1430, 5-({3-[4-(1,3-Thiazol-2-ylcarbonyl)piperazin-1-yl]azetidin-1-yl}carbonyl)-1,3,3-tris[3-(trifluoromethyl)benzyl]-1,3-dihydro-2H-indol-2-one], for which the IC50 in assay [1] worked out at 9890 nM. In addition, the Kd in assay [2] (setting [3]) came out at 50 µM.
In the same order, the values of `O=C(c1ccc(-n2cnc3ccccc32)cc1)N1CC(N2CCN(C(=O)c3nccs3)CC2)C1` [Cpd 1223] are 267 nM and 0.111 µM.
`O=C(c1cscn1)N1CCN(C2CN(C(=O)c3cc4cc(Cl)ccc4o3)C2)CC1` [Cpd 1444]: in assay [1], the IC50 was above 16700 nM. Also, the Kd in assay [2] (setting [4]) was above 31 µM.
In assay [1], `O=C(c1cc2cc(Cl)ccc2o1)N1CC(N2CCN(C(=O)c3nccs3)CC2)C1` [Cpd 818] yielded an IC50 of 2700 nM. Further, in assay [2] (setting [3]), the Kd turned out to be 1 µM.
The molecule `Cc1cn(-c2ccc(C(=O)N3CC(N4CCN(C(=O)c5nccs5)CC4)C3)cc2)c2ccccc12` [Cpd 1413] showed an IC50 in assay [1] of 15 nM. The Kd in assay [2] (setting [5]) came to 0.003 µM.
Take `O=C(c1ccc2nn(Cc3cccc(C(F)(F)F)c3)cc2c1)N1CC(N2CCN(C(=O)c3nccs3)CC2)C1` [Cpd 1039, 5-({3-[4-(1,3-Thiazol-2-ylcarbonyl)piperazin-1-yl]azetidin-1-yl}carbonyl)-2-[3-(trifluoromethyl)benzyl]-2H-indazole]: the IC50 in assay [1] came out at 5 nM. The Kd in assay [2] (setting [6]) was determined as 0.007 µM.
Take `Cc1c(C(=O)N2CC(N3CCN(C(=O)c4nccs4)CC3)C2)[nH]c2ccc(F)cc12` [Cpd 719]: it took 154 nM to reach half-maximal inhibition in assay [1] (IC50). Also, the Kd in assay [2] (setting [7]) was determined as 0.119 µM.
In turn, `O=C(c1ccc[nH]1)N1CCN(C2CN(C(=O)c3[nH]c4nc(C(F)(F)F)ccc4c3Br)C2)CC1` [Cpd 739] returned an IC50 in assay [1] of 290 nM. Besides, the Kd in assay [2] (setting [7]) turned out to be 0.265 µM.
`Cc1cc2c(ccn2-c2ccc(F)cc2)cc1C(=O)N1CC(N2CCN(C(=O)c3nccs3)CC2)C1` [Cpd 1415]: the midpoint of inhibition in assay [1], the IC50, lay at 115 nM. For the same molecule, the Kd in assay [2] (setting [6]) stood at 0.011 µM.
Turning to `O=C(c1ccc2c(ccn2-c2ccc(F)cn2)c1)N1CC(N2CCN(C(=O)c3nccs3)CC2)C1` [Cpd 1121, 1-(5-Fluoropyridin-2-yl)-5-({3-[4-(1,3-thiazol-2-ylcarbonyl)piperazin-1-yl]azetidin-1-yl}carbonyl)-1H-indole], half-maximal inhibition in assay [1] (IC50) was put at 18 nM. Besides, the Kd in assay [2] (setting [7]) stood at 0.042 µM.
Turning to `N#Cc1ccc(Cn2ncc3cc(C(=O)N4CC(N5CCN(C(=O)c6nccs6)CC5)C4)ccc32)cc1` [Cpd 1045, 4-{[5-({3-[4-(1,3-Thiazol-2-ylcarbonyl)piperazin-1-yl]azetidin-1-yl]carbonyl)-1H-indazol-1-yl}methyl}benzonitrile], in assay [1], half-maximal inhibition (IC50) required 21 nM. Besides, in assay [2] (setting [6]), the Kd was determined as 0.19 µM.
In turn, `O=C(c1ccccc1)N1CCN(C2CN(C(=O)c3ccc4c(cnn4-c4ccc(F)c(F)c4)c3)C2)CC1` [Cpd 590] came in with an IC50 in assay [1] of 186 nM. The Kd in assay [2] (setting [5]) stood at 0.182 µM.
`O=C(c1ccc2nc(-c3ccccc3)oc2c1)N1CCN(C2CN(C(=O)c3nccs3)C2)CC1` [Cpd 1233] displayed an IC50 in assay [1] of 343 nM. For the same molecule, the Kd in assay [2] (setting [4]) was 0.19 µM.
On to `O=C(c1cscn1)N1CCN(C2CN(C(=O)c3cccc4nc(-c5ccccc5)oc34)C2)CC1` [Cpd 1237], for which half-maximal inhibition in assay [1] (IC50) required 393 nM. Also, the Kd in assay [2] (setting [4]) worked out at 0.064 µM.
For the molecule `O=C(c1ccc(-c2cccc(C(F)(F)F)c2)cc1)N1CC(N2CCN(C(=O)C3CC3(F)F)CC2)C1` (stereo not shown) [Cpd 1112], the IC50 in assay [1] was determined as 16 nM. Moreover, the Kd in assay [2] (setting [5]) was 0.046 µM.
For `Cc1c(C(=O)N2CC(N3CCN(C(=O)c4cscn4)CC3)C2)sc2nc(C(F)(F)F)ccc12` [Cpd 749], in that order: 387 nM and 0.036 µM.
For the molecule `NC(=O)c1ccc(Cn2ncc3cc(C(=O)N4CC(N5CCN(C(=O)c6nccs6)CC5)C4)ccc32)cc1` [Cpd 1044, 4-{[5-({3-[4-(1,3-Thiazol-2-ylcarbonyl)piperazin-1-yl]azetidin-1-yl]carbonyl)-1H-indazol-1-yl}methyl}benzamide], the IC50 in assay [1] is 718 nM. The Kd in assay [2] (setting [6]) was 0.945 µM.
In assay [1], `O=C(c1ccc2c(ccn2-c2ccc(F)cc2)c1)N1CC(N2CCN(C(=O)c3ccc(F)s3)CC2)C1` [Cpd 1427] returned an IC50 of 6 nM. Besides, in assay [2] (setting [5]), the Kd came to 0.01 µM.
In assay [1], `O=C(c1cscn1)N1CC(N2CCN(C(=O)c3cc4cc(C(F)(F)F)ccc4[nH]3)CC2)C1` [Cpd 772] yielded an IC50 of 799 nM. In addition, the Kd in assay [2] (setting [3]) turned out to be 0.185 µM.
Consider `O=C(c1ccc2c(cnn2-c2ccc(C(F)(F)F)cc2)c1)N1CC(N2CCN(C(=O)c3nccs3)CC2)C1` [Cpd 1080], for which inhibition in assay [1] was half-maximal at 9 nM (IC50). Also, the Kd in assay [2] (setting [5]) is 0.006 µM.
In turn, `Cc1ccnc(-n2ccc3cc(C(=O)N4CC(N5CCN(C(=O)c6nccs6)CC5)C4)ccc32)c1` [Cpd 1128, 1-(4-Methylpyridin-2-yl)-5-({3-[4-(1,3-thiazol-2-ylcarbonyl)piperazin-1-yl]azetidin-1-yl}carbonyl)-1H-indole] displayed an IC50 in assay [1] of 21 nM. In addition, in assay [2] (setting [7]), the Kd worked out at 0.018 µM.
Molecule `O=C(c1ccc(-c2cccc(C(F)(F)F)c2)cc1)N1CC(N2CCN(C(=O)c3nccs3)CC2)C1` [Cpd 237, 1-(1,3-Thiazol-2-ylcarbonyl)-4-(1-{[3′-(trifluoromethyl)biphenyl-4-yl]carbonyl}azetidin-3-yl)piperazine] came in with an IC50 in assay [1] below 5 nM. In addition, the Kd in assay [2] (setting [4]) came out at 0.001 µM.
In assay [1], `Cc1nccc(-n2ccc3cc(C(=O)N4CC(N5CCN(C(=O)c6nccs6)CC5)C4)ccc32)n1` [Cpd 1216, 1-(2-Methylpyrimidin-4-yl)-5-({3-[4-(1,3-thiazol-2-ylcarbonyl)piperazin-1-yl]azetidin-1-yl}carbonyl)-1H-indole] yielded an IC50 of 216 nM. In addition, the Kd in assay [2] (setting [7]) came to 0.022 µM.
In the case of `C[C@@H]1CN(C(=O)c2nccs2)C[C@H](C)N1C1CN(C(=O)c2cc3ccc(C(F)(F)F)cc3s2)C1` [Cpd 953], the IC50 in assay [1] was above 16700 nM. Besides, the Kd in assay [2] (setting [7]) was above 26.9 µM.
`Cc1nc2cc(Cl)cc(Cl)c2cc1C(=O)N1CC(N2CCN(C(=O)c3nccs3)CC2)C1` [Cpd 823]: 2970 nM corresponded to half-maximal inhibition in assay [1] (IC50). Moreover, in assay [2] (setting [7]), the Kd is 1.25 µM.
In the same order, the values of `O=C(c1ccc2c(=O)c3ccccc3oc2c1)N1CC(N2CCN(C(=O)c3nccs3)CC2)C1` [Cpd 710] are 123 nM and 0.197 µM.
Regarding `O=C(c1cscn1)N1CCN(C2CN(C(=O)c3cn(-c4ccc(F)cc4)c4ccccc34)C2)CC1` [Cpd 1295], in assay [1], the IC50 was found to be 3280 nM. The Kd in assay [2] (setting [5]) worked out at 1.51 µM.

Source of the values: patent US8362000B2, “Azetidinyl diamides as monoacylglycerol lipase inhibitors” (Janssen Pharmaceutica NV, priority 2009, dated 2013).
